Here are results for 20 compounds from US5441950A, “Substituted dibenzoxazepine and dibenzthiazepine carbamate compounds, pharmaceutical compositions and methods of use” (G. D. Searle & Co., priority 1994, dated 1995).

The subject of one assay is mice. Nature of the assay: Writhing Assay (PBQ-induced writhing, analgesia, intragastric). The assay is classed as in vivo, mouse (Charles River male albino mice). As to conditions: for responders at 30 mg/kg: ip, 0.5 h, read-out: WRITHING ASSAY, number of mice out of nine or ten in which the test compound produced analgesia. The source says:
The Writhing Assay is one of the most widely-used experimental procedures for measuring the analgesic activity of different narcotic and nonnarcotic analgesic agents, and involves the continuous, chemically-induced pain of visceral origin to an animal, such as a mouse or rat. [Gyires et al., Arch. int. […] Chemicals which may be used to induce this pain include phenylbenzoquinone (PBQ) and acetic acid. As a result of the chemical irritation to the animal, a characteristic stretching and writhing of the animal (dorsiflexion of the animal's back, extension of its hindlimbs and the strong contraction of its abdominal musculature) will generally occur. […] Drugs which reduce the number of writhes of the animal appear to restore the normal nociceptive threshold of the animal. […] Charles River male albino mice, weighing 20 to 30 grams, were used in this assay. […] Ten mice which were given saline in place of a test compound of the invention were used as a control group. Five minutes later, each mouse was individually placed into a glass beaker for observation, and the number of writhes occurring during the following ten-minute period was counted. […] The standard initial screening dose of a test compound employed in this assay was 30 mpk […].

Assay [1] has as its target T1, prostaglandin E2 -induced contractions of segments of guinea pig ileum (Cavia porcellus, UniProt A0A286XHJ6).
T1 construct: The ilea were then quickly removed from the guinea pigs; from tissue; host or cells: guinea pig ileum segments (male albino guinea pigs)
T1 sequence (A0A286XHJ6 1-405): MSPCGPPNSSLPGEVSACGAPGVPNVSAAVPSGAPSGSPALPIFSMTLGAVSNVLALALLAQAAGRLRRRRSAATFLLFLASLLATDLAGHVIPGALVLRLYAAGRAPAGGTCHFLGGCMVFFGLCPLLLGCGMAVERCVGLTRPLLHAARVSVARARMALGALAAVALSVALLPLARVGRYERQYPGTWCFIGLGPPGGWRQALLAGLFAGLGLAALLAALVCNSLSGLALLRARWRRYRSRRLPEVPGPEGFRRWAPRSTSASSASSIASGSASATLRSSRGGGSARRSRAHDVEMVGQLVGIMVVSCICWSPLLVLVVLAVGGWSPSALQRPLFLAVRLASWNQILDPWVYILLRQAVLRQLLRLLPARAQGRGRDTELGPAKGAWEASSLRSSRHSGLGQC
Nature of the assay: Prostaglandin (PGE) Antagonism Assay (prostaglandin E2-induced contractions of guinea pig ileum segments). As to conditions: for PGE in guinea pig ileum, dose ratio: dose ratio of prostaglandin E2 EC50 doses, initial test concentration 3 micromolar. The source says:
The ilea were then quickly removed from the guinea pigs and placed in a modified Tyrode solution, a solution which is known to those skilled in the art, containing one-half of the usual amount of magnesium ions. […] Data for a control prostaglandin E2 dose response curve plotting concentration of prostaglandin E2 versus the intensity of contractions, detected isotonically, was then obtained by experimentally adjusting the dose of the prostaglandin E2 being injected into the tissue bath, in a manner known by those of skill in the art. Solutions or suspensions containing an initial concentration (3 micromolar) of a test compound in modified Tyrode solution ("test solutions/suspensions") were then separately substituted for the control bath solution. Each test solution/suspension was then kept in constant contact with the ileum tissue, except for brief periods to drain the bath in preparation for rinsing with fresh test solution/suspension. A second prostaglandin E2 dose response curve was then generated for prostaglandin E2 in the presence of a test compound. A dose ratio of EC50 doses was then calculated from the results of each test in a manner known by those of skill in the art.

The mark [2] stands for this setting: Mus musculus, 30 mg per kilogram, I.G., 30 min before PBQ i.p., writhes <= one-half the control median.

The structures appear in SMILES notation. Structures can show the parent of a compound that is named as a salt. Where two headings read alike, the source gives them in different places.

Consider `O=C(NCc1ccccn1)N1Cc2ccccc2Oc2ccc(Cl)cc21` [Example 47, 8-chloro-N-(2-pyridinylmethyl)dibenz[b,f][1,4]oxazepine-10(11H)-carboxamide, monohydrochloride], for which the responders at 30 mg/kg in the assay on mice (setting [2]) is 80%.

For the compound `O=C(OCc1ccncc1)N1Cc2ccccc2Oc2ccc(Cl)cc21` [Example 44, (4-pyridinyl)methyl 8-chlorodibenz[b,f][1,4]oxazepine-10(11H)-carboxylate], the “PGE in guinea pig ileum, dose ratio” value in assay [1] was found to be 365.

Take `C[C@@H](NC(=O)N1Cc2ccccc2Oc2ccc(Cl)cc21)C(=O)O` [Example 33, (D)-2R-[[(8-chlorodibenz[b,f][1,4]oxazepine-10(11H)yl)carbonyl]amino]propanoic acid]: the “PGE in guinea pig ileum, dose ratio” value in assay [1] turned out to be 2.0. Also, the responders at 30 mg/kg with mice (setting [2]) was found to be 60%.

`COC(=O)[C@H](C)NC(=O)N1Cc2ccccc2Oc2ccc(Cl)cc21` [Example 32, methyl (L)-2R-[[(8-chlorodibenz[b,f][1,4]oxazepine-10-(11H)-yl)carbonyl]amino]propanoate]: the “PGE in guinea pig ileum, dose ratio” value in assay [1] was 3.5. Moreover, the median effective dose (ED50) – broadly, the dose that gives a 50% effect, or the effect in half of the subjects – in the assay with mice (Mus musculus, po, I.G., mice, PBQ, read-out: WRITHING ASSAY, ED50 Dose) came to 7.2 mg/kg.

For `CC(C)(CNC(=O)OCc1ccccc1)NC(=O)N1Cc2ccccc2Oc2ccc(Cl)cc21` [Example 18, phenylmethyl N-[2-[[(8-chlorodibenz[b,f][1,4]oxazepine-10(11H)-yl]carbonyl]amino]-2-methylpropyl]carbamate], in assay [1], the “PGE in guinea pig ileum, dose ratio” value was determined as 2.6. In the assay with mice (setting [2]), the responders at 30 mg/kg was found to be 40%.

Take `O.O=C(NCc1nn[nH]n1)N1Cc2ccccc2Oc2ccc(Cl)cc21.[Na]` [Example 20, 8-chloro-N-[(2H-tetrazol-5-yl)methyl]dibenz[b,f][1,4]oxazepine-10(11H)-carboxamide, sodium salt, hydrate]: the “PGE in guinea pig ileum, dose ratio” value in assay [1] was 1.80. In addition, the responders at 30 mg/kg in the assay with mice (Mus musculus) was determined as 20%.

Consider `O=C(NCCCCc1ccncc1)N1Cc2ccccc2Oc2ccc(Cl)cc21` [Example 24, 8-chloro-N-[4-(4-pyridinyl)butyl]dibenz[b,f][1,4]oxazepine-10(11H)-carboxamide], for which the “PGE in guinea pig ileum, dose ratio” value in assay [1] was determined as 7.9. In addition, in the assay on mice (setting [2]), the responders at 30 mg/kg turned out to be 60%.

Regarding `O=C(OCCCNCc1ccncc1)N1Cc2ccccc2Oc2ccc(Cl)cc21` [Example 14, 3-[[(4-pyridinyl)methyl]amino]propyl-8-chlorodibenz[b, f][1,4]oxazepine-10(11H)carboxylate, hydrochloride], the “PGE in guinea pig ileum, dose ratio” value in assay [1] is 25.03. Further, the responders at 30 mg/kg with mice (setting [2]) turned out to be 50%.

On to `C[C@H](NC(=O)N1Cc2ccccc2Oc2ccc(Cl)cc21)C(=O)O` [Example 34, (L)-2S-[[(8-chlorodibenz[b,f][1,4]oxazepine-10(11H)yl)carbonyl]amino]propanoic acid], for which the “PGE in guinea pig ileum, dose ratio” value in assay [1] is listed as 1.7. In addition, in the assay with mice (setting [2]), the responders at 30 mg/kg amounted to 20%.

For the compound `CCN(CC)CCCCCOC(=O)N1Cc2ccccc2Oc2ccc(Cl)cc21` [Example 29, 5-(diethylamino)pentyl 8-chlorodibenz[b,f][1,4]oxazepine-10(11H)-carboxylate], the responders at 30 mg/kg in the assay with mice (setting [2]) worked out at 70%. The “potency in the Writhing Assay (in words)” value with mice (mice, I.G.) was “most potent compound of the invention tested in this assay”.

As to `O=C(CNC(=O)N1Cc2ccccc2Oc2ccc(Cl)cc21)Nc1ccncc1` [Example 16, 8-chloro-N-[[[(4-pyridinyl)amino]carbonyl]methyl]dibenz[b,f][1,4]oxazepine-10(11H)carboxamide, monohydrochloride], in assay [1], the “PGE in guinea pig ileum, dose ratio” value turned out to be 1.70. In addition, the responders at 30 mg/kg in the assay with mice (setting [2]) amounted to 80%.

Consider `Cl.O=C(CNC(=O)N1Cc2ccccc2Oc2ccc(Cl)cc21)NCCc1ccccn1` [Example 8, 8-chloro-N-[[[[2-(2-pyridinyl)ethyl]amino]carbonyl]methyl]-10(11H) dibenz[b,f][1,4]oxazepinecarboxamide hydrochloride], for which the “PGE in guinea pig ileum, dose ratio” value in assay [1] was determined as 11.02. Also, the responders at 30 mg/kg in the assay on mice (setting [2]) came out at 30%.

`O=C(NCc1ccncc1)N1Cc2ccccc2Oc2ccc(Cl)cc21` [Example 45, 8-chloro-N-(4-pyridinylmethyl)dibenz[b,f][1,4]oxazepine-10(11H)carboxamide,monohydrochloride]: in assay [1], the “PGE in guinea pig ileum, dose ratio” value is listed as 1.0. Further, the responders at 30 mg/kg in the assay with mice (setting [2]) is 60%.

Consider `CC(C)(CNC(=O)c1ccncc1)NC(=O)N1Cc2ccccc2Oc2ccc(Cl)cc21` [Example 28, 8-chloro-N-[2-[[(4-pyridinyl)carbonyl]amino-1,1-dimethylethyl]dibenz[b,f][1,4]oxazepine-10(11H)carboxamide, hydrochloride hydrate], for which the “PGE in guinea pig ileum, dose ratio” value in assay [1] is listed as 2.0. Besides, the responders at 30 mg/kg in the assay with mice (setting [2]) came out at 20%.

As to `O=C(CNC(=O)N1Cc2ccccc2Oc2ccc(Cl)cc21)NCc1ccncc1` [Example 6, 8-chloro-N-[[[(4-pyridinylmethyl)amino]carbonyl]methyl]-10(11H)-dibenz[b,f][1,4]oxazepinecarboxamide, hydrochloride], in assay [1] (Schild plot, prostaglandin E2-induced contractions, read-out: PGE in guinea pig ileum, pA2 (converted)), the Kb was 955 nM. For the same compound, the responders at 30 mg/kg in the assay on mice (setting [2]) turned out to be 60%.

For the compound `O=C(OCc1ccccc1)N1Cc2ccccc2Oc2ccc(Cl)cc21` [Example 43, phenylmethyl 8-chlorodibenz[b,f][1,4]oxazepine-10(11H)-carboxylate], in assay [1], the “PGE in guinea pig ileum, dose ratio” value is on record as 0.3.

On to `COC(=O)[C@@H](C)NC(=O)N1Cc2ccccc2Oc2ccc(Cl)cc21` [Example 31, methyl (D)-2R-[[(8-chlorodibenz[b,f][1,4]oxazepine-10(11H)-yl)carbonyl]amino]propanoate], for which, in assay [1], the “PGE in guinea pig ileum, dose ratio” value came to 1.4. Besides, in the assay with mice (setting [2]), the responders at 30 mg/kg stood at 80%.

With `CN(C)Cc1ccc(COC(=O)N2Cc3ccccc3Oc3ccc(Cl)cc32)o1` [Example 12, [2-(dimethylaminomethyl)furan-5-yl]methyl-8-chlorodibenz[b,f][1,4]oxazepine-10(11H)carboxylate, monohydrochloride], the responders at 30 mg/kg in the assay on mice (setting [2]) was 20%.

Regarding `O=C(NCc1cccnc1)N1Cc2ccccc2Oc2ccc(Cl)cc21` [Example 46, 8-chloro-N-(3-pyridinylmethyl)dibenz[b,f]oxazepine-10(11H)-carboxamide, monohydrochloride], the “PGE in guinea pig ileum, dose ratio” value in assay [1] is given as 2.7. Moreover, the responders at 30 mg/kg in the assay with mice (setting [2]) turned out to be 40%.

As to `O=C(OCCCc1ccncc1)N1Cc2ccccc2Oc2ccc(Cl)cc21` [Example 10, 3-(4-pyridinyl)propyl 8-chloro-10(11H)dibenz[b,f][1,4]oxazepinecarboxylate,monohydrochloride], the “PGE in guinea pig ileum, dose ratio” value in assay [1] is on record as 2.63. In addition, in the assay on mice (setting [2]), the responders at 30 mg/kg turned out to be 30%.
